Measured values reported in patent US9756858B2, “Insecticides” (Syngenta Participations AG, priority 2011, dated 2017).

Columns and labels:
Format in all cases: in vivo
[1] = test system: Myzus persicae (green peach aphid); assay: Activity against Myzus persicae (mixed population, feeding/residual contact, preventive); conditions: foliar, 144 h, sunflower leaf discs, 6 days incubation
Method: Example B4: Activity Against Myzus Persicae (Green Peach Aphid) (mixed population, feeding/residual contact activity, preventive) Sunflower leaf discs were placed on agar in a 24-well microtiter plate and sprayed with test solutions. After drying, the leaf discs were infested with an aphid population of mixed ages. After an incubation period of 6 days, samples were checked for mortality and special effects (e.g. phytotoxicity).

[2] = test system: Myzus persicae (green peach aphid); assay: Activity against Myzus persicae (mixed population, systemic/feeding, curative); conditions: 144 h, roots of pea seedlings in test solution, 6 days
Description: Example B5: Activity Against Myzus persicae (Green Peach Aphid) (mixed population, systemic/feeding activity, curative) Roots of pea seedlings, infested with an aphid population of mixed ages, were placed directly in the test solutions. 6 days after introduction, samples were checked for mortality and special effects on the plant.

[3] = test system: Tetranychus urticae (two-spotted spider mite); assay: Activity against Tetranychus urticae (mixed population, feeding/residual contact, preventive); conditions: foliar, 192 h, bean leaf discs, 8 days
Description: Example B7: Activity Against Tetranychus urticae (Two-Spotted Spider Mite) (mixed population, feeding/residual contact activity, preventive) Bean leaf discs on agar in 24-well microtiter plates are sprayed with test solutions. After drying, the leaf discs are infested with mite populations of mixed ages. 8 days later, discs are checked for egg mortality, larval mortality, and adult mortality.

[4] = test system: Plutella xylostella (diamond back moth); assay: Plutella xylostella (larvicide, feeding/residual contact, preventive); conditions: 200 ppm; artificial diet, L2 larvae, 5 days incubation
Method: Example B3: Plutella xylostella (Diamond Back Moth) (larvicide, feeding/residual contact activity, preventive) 24-well microtiter plate (MTP) with artificial diet was treated with test solutions by pipetting. After drying, the MTP's were infested with larvae (L2) (10-15 per well). After an incubation period of 5 days, samples were checked for larval mortality, antifeedant and growth regulation.

[5] = test system: Aphis craccivora; assay: Activity against Aphis craccivora (mixed population, contact/feeding), comparison with state of the art; conditions: for Death rate (%) after 5 days: pea seedlings, spray
Method: Comparison of the Insecticidal Activity of Compounds According to the Invention with the Structurally Closest Compound from the State of the Art (Compound No. 39 Described on Page 66 of WO2009/149858): Example B8: Activity Against Aphis craccivora (mixed population, contact/feeding) Pea seedlings, infested with an aphid population of mixed ages, were treated with diluted test solutions in a spray chamber. […]

[6] = test system: Spodoptera littoralis (Egyptian cotton leafworm); assay: Activity against Spodoptera littoralis (larvicide, feeding/residual contact, preventive); conditions: 200 ppm; cotton leaf discs, L1 larvae, 3 days after treatment
Description: Example B1: Activity Against Spodoptera littoralis (Egyptian Cotton Leafworm) (larvicide, feeding/residual contact activity, preventive) Cotton leaf discs were placed on agar in a 24-well microtiter plate and sprayed with test solutions. After drying, the leaf discs were infested with 5 L1 larvae. The samples were checked for mortality, repellent effect, feeding behaviour, and growth regulation 3 days after treatment.

| Structure (SMILES) | pest or weed control at 200 ppm [1] [%] | also measured |
| --- | --- | --- |
| C[S+]([O-])CCNC(=O)c1sc(-c2cccnc2)nc1Cl (centres unmarked) [Compound 1.145] | > 80 | pest or weed control at 24 ppm [2]: > 80% |
| Cc1cc(O)nc(NC(=O)c2sc(-c3cccnc3)nc2Cl)n1 [Compound 1.072] | > 80 |  |
| CC(C)(C)NC(=O)c1sc(-c2cccnc2)nc1Cl [Compound 1.149] | > 80 |  |
| O=C(c1sc(-c2cccnc2)nc1Cl)N1CCC[C@H]1COc1c(Cl)cc(Cl)cc1Cl [Compound 1.096] |  | pest or weed control at 200 ppm [3]: > 80% |
| O=C(NC1CSC1)c1sc(-c2cccnc2)nc1Cl [Compound 1.007] | > 80 | pest or weed control at 24 ppm [2]: > 80% |
| O=C(Nc1cccc2ncccc12)c1sc(-c2cccnc2)nc1Cl [Compound 1.053] | > 80 |  |
| CCN1OCC(NC(=O)c2sc(-c3cccnc3)nc2Cl)C1=O (centres unmarked) [Compound 1.093] |  | pest or weed control at 24 ppm [2]: > 80% |
| C[C@@H](NC(=O)c1sc(-c2cccnc2)nc1Cl)C(F)(F)F [Compound 1.100] | > 80 |  |
| O=C(NCCC1CS(=O)(=O)C1)c1sc(-c2cccnc2)nc1Cl [Compound 1.094] | > 80 |  |
| C#CC(C)(C)NC(=O)c1sc(-c2cccnc2)nc1Cl [Compound 1.152] | > 80 |  |
| CC1(NC(=O)c2sc(-c3cccnc3)nc2Cl)CSC1 [Compound 1.143] |  | pest or weed control at 24 ppm [2]: > 80% |
| O=C(NC1CON(CC(F)(F)F)C1=O)c1sc(-c2cccnc2)nc1Cl (centres unmarked) [Compound 1.095] | > 80 | pest or weed control at 24 ppm [2]: > 80% |
| Clc1csc(C2C=CC=NC2c2sc(-c3cccnc3)nc2Cl)n1 (centres unmarked) [Compound 1.001] |  | pest or weed control at 200 ppm [3]: > 80%; activity [4]: over 80% |
| COCC(C)(C#N)NC(=O)c1sc(-c2cccnc2)nc1Cl (centres unmarked) [Compound 1.150] | > 80 |  |
| CC(C)(NC(=O)c1sc(-c2cccnc2)nc1Cl)C(=O)c1ccc(Cl)cc1 [Compound 1.131] |  | pest or weed control at 200 ppm [3]: > 80% |
| O=C(NCC(F)(F)F)c1sc(-c2cccnc2)nc1Cl [Compound 1.005] | > 80 | Death rate (%) after 5 days ([5]; 3 ppm): 0%; Death rate (%) after 5 days ([5]; 12.5 ppm): 0%; Death rate (%) after 5 days ([5]; 25 ppm): 30%; Death rate (%) after 5 days ([5]; 50 ppm): 90%; insecticidal action on Aphis craccivora compared with the compound from the state of the art ([5]; comparison with Comp. 39, especially at 25, 12.5 and 3 ppm): substantially better insecticidal action |
| CSCC(C)(C)NC(=O)c1sc(-c2cccnc2)nc1Cl [Compound 1.086] | > 80 | pest or weed control at 24 ppm [2]: > 80% |
| COc1cc(-c2sc(-c3cccnc3)nc2Cl)nc(OC)n1 [Compound 1.160] |  | pest or weed control at 200 ppm [3]: > 80% |
| COC(=O)c1ccc(NC(=O)c2sc(-c3cccnc3)nc2Cl)nc1 [Compound 1.138] |  | pest or weed control at 200 ppm [3]: > 80% |
| O=C(NCc1ccc2c(c1)OCCO2)c1sc(-c2cccnc2)nc1Cl [Compound 1.038] | > 80 |  |
| Clc1cccc(-c2sc(-c3cccnc3)nc2Cl)n1 [Compound 1.011] | > 80 |  |
| COCC#CC(C)(C)NC(=O)c1sc(-c2cccnc2)nc1Cl [Compound 1.130] | > 80 |  |

| Structure (SMILES) | pest or weed control at 200 ppm [1] [%] | also measured |
| --- | --- | --- |
| CON1CCC(NC(=O)c2sc(-c3cccnc3)nc2Cl)CC1 [Compound 1.120] | > 80 | pest or weed control at 24 ppm [2]: > 80% |
| O=C(NC1CCSC1)c1sc(-c2cccnc2)nc1Cl (centres unmarked) [Compound 1.088] | > 80 | pest or weed control at 24 ppm [2]: > 80% |
| O=C(NCCC1CSC1)c1sc(-c2cccnc2)nc1Cl [Compound 1.148] | > 80 | pest or weed control at 24 ppm [2]: > 80% |
| CC(C)(NC(=O)c1sc(-c2cccnc2)nc1Cl)C(=O)c1cccc(Br)c1 [Compound 1.132] |  | pest or weed control at 200 ppm [3]: > 80% |
| Cc1cc(NC(=O)c2sc(-c3cccnc3)nc2Cl)n(C)n1 [Compound 1.069] | > 80 |  |
| O=C(NC1C[S+]([O-])C1)c1sc(-c2cccnc2)nc1Cl (centres unmarked) [Compound 1.090] |  | pest or weed control at 24 ppm [2]: > 80% |
| CC#CC(C)(C)NC(=O)c1sc(-c2cccnc2)nc1Cl [Compound 1.153] | > 80 |  |
| O=C(NC1CS(=O)(=O)C1)c1sc(-c2cccnc2)nc1Cl [Compound 1.085] | > 80 |  |
| CN(Cc1ccc(Cl)nc1)C(=O)c1sc(-c2cccnc2)nc1Cl [Compound 1.124] |  | pest or weed control at 200 ppm [3]: > 80% |
| O=C(NCC1CCS1)c1sc(-c2cccnc2)nc1Cl (centres unmarked) [Compound 1.147] | > 80 | pest or weed control at 24 ppm [2]: > 80% |
| COC(c1ccc(Cl)cc1Cl)C(C)NC(=O)c1sc(-c2cccnc2)nc1Cl (centres unmarked) [Compound 1.156] |  | activity [6]: over 80%; pest or weed control at 200 ppm [3]: > 80% |
| O=C(Nc1ccc(Oc2ccccc2)nc1)c1sc(-c2cccnc2)nc1Cl [Compound 1.079] | > 80 |  |
| CCCCNC(=O)c1sc(-c2cccnc2)nc1Cl [Compound 1.142] | > 80 |  |
| CC(=O)NCCNC(=O)c1sc(-c2cccnc2)nc1Cl [Compound 1.039] | > 80 |  |
| O=C(NC1CCC1)c1sc(-c2cccnc2)nc1Cl [Compound 1.144] | > 80 |  |
| CS(=O)(=O)c1ccc(CNC(=O)c2sc(-c3cccnc3)nc2Cl)cc1 [Compound 1.021] | > 80 |  |
| O=C(NCC1CCCO1)c1sc(-c2cccnc2)nc1Cl (centres unmarked) [Compound 1.026] | > 80 |  |
| Cc1nc(-c2cccnc2)sc1C(=O)NCC(F)(F)F [Comp. 39, reference compound] |  | Death rate (%) after 5 days ([5]; 3 ppm): 35%; Death rate (%) after 5 days ([5]; 12.5 ppm): 85%; Death rate (%) after 5 days ([5]; 25 ppm): 99%; Death rate (%) after 5 days ([5]; 50 ppm): 99% |
| O=C(NC1C[S+]([O-])C1)c1sc(-c2cccnc2)nc1Cl (centres unmarked) [Compound 1.089] | > 80 |  |
| CSCCNC(=O)c1sc(-c2cccnc2)nc1Cl [Compound 1.146] | > 80 | pest or weed control at 24 ppm [2]: > 80% |
| O=C(NC1(C2CC2)CC1)c1sc(-c2cccnc2)nc1Cl [Compound 1.119] | > 80 |  |
